The source made the active and inactive calls. No cut-off for these calls is given here.
What was measured:
SK-MEL-2 [1] = test: Antiproliferative activity against human SK-MEL-2 cells harboring wild type B-RAF assessed as cell growth inhibition measured after 72 hrs by CCK-8 analysis; format: functional, cell-based; details: SK-MEL-2, 72 h
SK-MEL-1 [2] = test: Antiproliferative activity against human SK-MEL-1 cells harboring […] B-RAF assessed as cell growth inhibition irradiated with 365 nm UV light for 5 mins measured after 72 hrs by CCK-8 analysis; format: functional, cell-based; details: SK-MEL-1, light or radiation study
A-375 [3] = test: Antiproliferative activity against human A-375 cells harboring B-RAF V600E mutant assessed as cell growth inhibition irradiated with 365 nm UV light for 10 mins measured after 72 hrs by CCK-8 analysis; format: functional, cell-based; details: A-375, light or radiation study
A-375 [4] = test: Antiproliferative activity against human A-375 cells harboring B-RAF V600E mutant assessed as cell growth inhibition irradiated with sun light for 10 mins measured after 72 hrs by CCK-8 analysis; format: functional, cell-based; details: A-375, light or radiation study
SK-MEL-1 [5] = test: Antiproliferative activity against human SK-MEL-1 cells harboring […] B-RAF assessed as cell growth inhibition measured after 72 hrs by CCK-8 analysis; format: functional, cell-based; details: SK-MEL-1, 72 h
A-375 [6] = test: Antiproliferative activity against human A-375 cells harboring B-RAF V600E mutant assessed as cell growth inhibition irradiated with sun light for 2.5 mins measured after 72 hrs by CCK-8 analysis; format: functional, cell-based; details: A-375, light or radiation study
[7] = Retention time of compound in PBS buffer by UPLC analysis; format: physicochemical; details: dose 5.85 µg/ml
A-375 [8] = test: Antiproliferative activity against human A-375 cells harboring B-RAF V600E mutant assessed as cell growth inhibition irradiated with 365 nm UV light for 5 mins measured after 72 hrs by CCK-8 analysis; format: functional, cell-based; details: A-375, light or radiation study
A-375 [9] = test: Inhibition of ERK phosphorylation in human A-375 cells at 0.1 to 10 uM incubated for 2 hrs by Western blot analysis; format: cell-based; details: dose 0.1-10 µM
SK-MEL-2 [10] = test: Antiproliferative activity against human SK-MEL-2 cells harboring wild type B-RAF assessed as cell growth inhibition irradiated with 365 nm UV light for 5 mins measured after 72 hrs by CCK-8 analysis; format: functional, cell-based; details: SK-MEL-2, light or radiation study
A-375 [11] = test: Antiproliferative activity against human A-375 cells harboring B-RAF V600E mutant assessed as cell growth inhibition irradiated with 365 nm UV light for 2.5 mins measured after 72 hrs by CCK-8 analysis; format: functional, cell-based; details: A-375, light or radiation study
[12] = biological target: Serine/threonine-protein kinase B-raf (Homo sapiens, UniProt P15056, V600E); test: Inhibition of GST-tagged recombinant human B-RAF V600E mutant expressed in baculovirus expression system incubated for 1 hr in presence of ATP by FRET-based Z'-Lyte analysis
Chain of Serine/threonine-protein kinase B-raf (P15056 2-766 V600E limits assumed): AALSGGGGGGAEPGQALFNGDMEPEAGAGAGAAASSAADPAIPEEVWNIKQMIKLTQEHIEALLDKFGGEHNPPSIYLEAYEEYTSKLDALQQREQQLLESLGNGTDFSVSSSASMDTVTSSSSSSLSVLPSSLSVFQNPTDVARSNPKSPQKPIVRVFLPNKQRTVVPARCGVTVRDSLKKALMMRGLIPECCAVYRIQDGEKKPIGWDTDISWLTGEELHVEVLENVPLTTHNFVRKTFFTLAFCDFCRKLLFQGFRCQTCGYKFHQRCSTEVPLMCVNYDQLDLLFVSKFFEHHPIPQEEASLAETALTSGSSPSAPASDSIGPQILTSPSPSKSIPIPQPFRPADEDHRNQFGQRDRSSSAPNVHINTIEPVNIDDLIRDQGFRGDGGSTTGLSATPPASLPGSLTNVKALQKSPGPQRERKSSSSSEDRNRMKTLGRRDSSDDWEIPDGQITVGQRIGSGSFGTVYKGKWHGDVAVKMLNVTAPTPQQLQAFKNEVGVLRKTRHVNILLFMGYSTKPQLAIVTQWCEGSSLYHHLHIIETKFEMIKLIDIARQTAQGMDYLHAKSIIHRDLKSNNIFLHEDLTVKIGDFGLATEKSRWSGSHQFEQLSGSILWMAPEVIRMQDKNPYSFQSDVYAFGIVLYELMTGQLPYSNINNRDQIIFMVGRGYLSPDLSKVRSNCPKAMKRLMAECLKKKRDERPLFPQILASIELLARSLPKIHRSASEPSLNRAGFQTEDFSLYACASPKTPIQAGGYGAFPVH

A-375 [13] = test: Inhibition of ERK phosphorylation in human A-375 cells at 0.1 to 10 uM incubated for 2 hrs irradiated with 365 nm UV light for 5 mins by Western blot analysis; format: cell-based; details: dose 0.1-10 µM
A-375 [14] = test: Antiproliferative activity against human A-375 cells harboring B-RAF V600E mutant assessed as cell growth inhibition measured after 72 hrs by CCK-8 analysis; format: functional, cell-based; details: A-375, 72 h
A-375 [15] = test: Antiproliferative activity against human A-375 cells harboring B-RAF V600E mutant assessed as cell growth inhibition irradiated with 365 nm UV light for 0.5 mins measured after 72 hrs by CCK-8 analysis; format: functional, cell-based; details: A-375, light or radiation study
A-375 [16] = test: Antiproliferative activity against human A-375 cells harboring B-RAF V600E mutant assessed as cell growth inhibition irradiated with sun light for 5 mins measured after 72 hrs by CCK-8 analysis; format: functional, cell-based; details: A-375, light or radiation study
A-375 [17] = test: Antiproliferative activity against human A-375 cells harboring B-RAF V600E mutant assessed as cell growth inhibition irradiated with sun light for 0.5 mins measured after 72 hrs by CCK-8 analysis; format: functional, cell-based; details: A-375, light or radiation study
[18] = Photorelease ability in PBS buffer assessed as N-(2,4-difluoro-3-((3-(4-fluorophenyl)-1H-pyrazolo[3,4-b]pyridin-5-yl)ethynyl)phenyl)pyridine-3-sulfonamide formation by measuring half life at 5.85 ug/ml irradiated with sun light by UPLC analysis; format: functional; details: dose 5.85 µg/ml
[19] = Photorelease ability in PBS buffer assessed as N-(2,4-difluoro-3-((3-(4-fluorophenyl)-1H-pyrazolo[3,4-b]pyridin-5-yl)ethynyl)phenyl)pyridine-3-sulfonamide formation by measuring half life at 5.85 ug/ml irradiated with 365 nm UV light by UPLC analysis; format: functional; details: dose 5.85 µg/ml

Compound	IC50 (SK-MEL-2 [1]) [nM]	IC50 (SK-MEL-1 [2]) [nM]	IC50 (A-375 [3]) [nM]	IC50 (A-375 [4]) [nM]	IC50 (SK-MEL-1 [5]) [nM]	IC50 (A-375 [6]) [nM]	Retention_time [7] [min]	IC50 (A-375 [8]) [nM]	inhibition (A-375 [9])	IC50 (SK-MEL-2 [10]) [nM]	IC50 (A-375 [11]) [nM]	IC50 [12] [nM]	inhibition (A-375 [13])	IC50 (A-375 [14]) [nM]	IC50 (A-375 [15]) [nM]	IC50 (A-375 [16]) [nM]	IC50 (A-375 [17]) [nM]	T1/2 [18] [min]	T1/2 [19] [min]
O=S(=O)(Nc1ccc(F)c(C#Cc2cnc3[nH]nc(-c4ccc(F)cc4)c3c2)c1F)c1cccnc1	> 10000	560	220	190	760	160	1.7	180	Active	> 10000	170	21	Active	210	190	170	160		
COc1cc(CN(c2ccc(F)c(C#Cc3cnc4[nH]nc(-c5ccc(F)cc5)c4c3)c2F)S(=O)(=O)c2cccnc2)c([N+](=O)[O-])cc1OC	> 10000	840	240	290	> 10000	340	5.9	210		> 10000	370	> 10000	Active	> 10000	700	280	850	2.8	2
